The structures appear in SMILES notation. ≈ marks a conversion by molar mass, not a printed value. Read-outs that look alike come from different tables or passages of the source.

In one data set the test system is M. luteus. In words: Antibacterial activity (growth inhibition, OD600). The settings on record: 48 h. The data set is classed as cell-based, Micrococcus luteus DSM 20030. Here is the method: (§1) To assess antimicrofouling activity, we selected five marine bacterial species as models: Marinobacter hydrocarbonoclasticus DSM 8798 (ATCC 49840), C. marina DSM 4741, Phaeobacter inhibens DSM 17,395, Pseusooceanicola batsensis DSM 15,984, and Micrococcus luteus DSM 20030 (ATCC 4698) ([Michael et al., 2016]). These strains, sourced from DSMZ (Leibniz Institute DSMZ—German Collection of Microorganisms and Cell Cultures), were cultured in liquid marine broth (Carl Roth GmbH, Karlsruhe, Germany) with agitation at 180 rpm or on agar-supplemented marine broth. Incubation temperatures were set at 28°C for M. hydrocarbonoclasticus and Cobetia marina, 30°C for P. inhibens and P. batsensis, while M. luteus was maintained at 37°C in Brain Heart Infusion broth (BHI, Becton Dickinson, GmbH, Heidelberg, Germany) under similar agitation conditions.
(§2) The antibacterial efficacy of compounds (1) and (2) was assessed in 96-well polystyrene flat-bottom microplates (Nunclon Delta Surface, Thermo Scientific, Roskilde, Denmark) following established procedures ([Bauermeister et al., 2019]). In the initial screening, bacterial overnight cultures were diluted to an optical density (OD600nm) of 0.2 and incubated statically at appropriate temperatures. The cultures were treated with the following final concentrations per well: 31.25, 15.60, 7.81, 3.91, 1.95, and 0.98 μg/mL (2-fold serial dilutions) of the compounds, solubilized in DMSO, or left untreated. After 24 h (M. hydrocarbonoclasticus, C. marina) or 48 h (P. batsensis, P. inhibens, M. luteus) incubation, optical density at 600 nm (OD600) was measured using a Molecular Devices Spectra Max 190. Growth inhibition percentages were calculated relatively to untreated bacterial species, using DMSO as a negative control. CuSO4 (0.16 μg/mL), a recognized antifouling agent, was used as positive control. All assays were conducted in triplicate, and the results represent the mean and standard error of the mean (SEM). Statistical analysis was carried out using GraphPad Prism 8.0.2 (San Diego, CA, United States), employing one-way ANOVA followed by Dunnett’s multiple comparisons test against the negative control.

For data set [1], the system named is Phaeodactylum tricornutum. Put plainly: Algal growth inhibition test (OECD 201, ISO-10253). The data set is classed as cell-based. Here is the method:
(§3) The in vivo evaluation of compounds (1) and (2) for acute toxicity was performed towards marine bacterium Aliivibrio fischeri, and planktonic crustacean Daphnia magna. The chronic ecotoxicity tests were evaluated using algae Pseudokirchneriella subcapitata and Phaeodactylum tricornutum.
Freshwater and marine algal growth inhibition was assessed using P. subcapitata and P. tricornutum according to OECD Guideline 201 procedures (“Alga, Growth Inhibition Test”), ISO-8692 (“Water quality–Fresh water algal growth inhibition test with unicellular green algae”) and ISO-10253. Briefly, the algae cells were de-immobilized from algal beads using Matrix dissolving medium (Microbiotests), according to the manufacturer’s instructions, and grown in flasks containing algal culturing medium which was prepared following the OECD Guideline 201 and ISO-8692. Flasks with algae were kept for 7 days under light with orbital agitation. When the algae culture had sufficient cells, as verified by the optical density at 670 nm, these were tested at an initial cell density of 1 × 10^6 cells/mL in algal culturing medium. Madeirone (1) and neomarinone (2) were dissolved in DMSO and tested at the concentrations of 100, 50, 25, 12.5, 6.25, 3.13, and 1.56 μg/mL. The algae were cultured in microplates in triplicate and were kept for 4 days under light with orbital agitation. […] Each experiment was performed in triplicate and the results of two independent experiments with <10% SD are presented. Growth inhibition calculations were performed using cell numbers (biomass), as determined by a calibration line. Potassium dichromate (K2Cr2O7) was used as a positive control.

Data set [2] deals with M. galloprovincialis plantigrade larvae. In words: Mussel plantigrade larvae anti-settlement bioassay. It counts as in vivo, Mytilus galloprovincialis. The note with it: 15 h acute exposure, 95% confidence limits in brackets; for EC50: Mytilus galloprovincialis, 15 h, read-out: EC50 [Conf. Limits] anti-settlement. The procedure:
The in vivo antimacrofouling activity of compounds (1) and (2) was evaluated against mussel M. galloprovincialis adhesive larvae (plantigrades) in an acute bioassay. Juvenile mussel aggregates were harvested from the intertidal rocky shore during low spring tides at Memória beach, Matosinhos, Portugal. In the laboratory, precisely before the bioassays, mussel plantigrade larvae were meticulously screened and isolated from the juvenile aggregates using a binocular microscope (Olympus SZX2-ILLT, Hamburg, Germany). The isolated larvae were then washed with filtered seawater to eliminate organic debris, and competent plantigrade larvae, characterized by foot exploratory behavior, were selected for the exposure bioassays, following established protocols ([Almeida et al., 2017]; [Almeida et al., 2020]; [Antunes et al., 2019]; [Mabrouk et al., 2020]). Plantigrades were exposed in 24-well polystyrene plates for 15 h in darkness at 18°C. DMSO served as the solvent for the testing compounds in stock and working solutions. The DMSO concentration in the tested solutions was consistently maintained at 0.1%. Each condition was replicated in four wells, with five larvae per well. Two negative controls, one with ultra-pure water and other with DMSO were included in all bioassays, along with a positive control using 0.16 μg/mL CuSO4, as a reference antifouling agent. The anti-settlement bioactivity was assessed based on the presence or absence of fixed byssal threads produced by each individual larva for all tested conditions. […] EC50 values for each compound were calculated using Probit regression analysis. Significance was considered at p < 0.01, and 95% lower and upper confidence limits (95% LCL; UCL). The software IBM SPSS Statistics 28 was used for statistical analysis. The therapeutic ratio (LC50/EC50) was employed to evaluate the effectiveness versus the toxicity of the compounds ([Qian et al., 2009]; [Almeida and Vasconcelos, 2015]).

In another data set the test system is P. batsensis. Put plainly: Antibacterial activity (growth inhibition, OD600). It counts as cell-based, Pseudo-oceanicola batsensis DSM 15984. The settings on record: 48 h; for inhibition at 15.6 µg/mL: 15.60 µg/mL. Here is the method:
as §1, §2

The subject of the next data set is Daphnia magna. The note with it: 100 µg/mL. Here is the method:
as §3
The immobilization of D. magna at 24 h and 48 h was studied following a micro adaptation of the OECD Guideline 202 procedures (“Daphnia sp., Acute Immobilisation Test and Reproduction Test”), using the Daphtoxkit F (Microbiotests, Gent, Belgium). Firstly, the ISO matrix medium was prepared, aerated and adjusted to pH 7. Next, the neonate daphnids were incubated for 72 h at 20 ± 1°C with light and fed spirulina 2 h prior to use, according to the manufacturer’s instructions. […] For the miniaturization of the procedure, one daphnid neonate was exposed to each compound in 10 mL sterile tubes containing 2 mL of ISO matrix medium, with the compounds at the determined concentrations. The assays were performed in triplicate.

The inhibition is the change of the read-out against control, counted positive when it falls. The term EC50 denotes the concentration that produces a half-maximal response. Take `CC1=CCC[C@@H](C)[C@]1(C)CC[C@@]1(C)c2c(O)cc3c(c2O[C@@H]1C)C(=O)C=C(CO)C3=O` (relative stereo) [compound 1, madeirone]: the “Growth inhibition (%) M. luteus” value in the data set with M. luteus (0.98 µg/mL), with M. luteus (1.95 µg/mL), with M. luteus (3.91 µg/mL), in the data set on M. luteus (7.81 µg/mL) and with M. luteus (15.60 µg/mL) was “N.I” each time. Further, the inhibition at 15.6 µg/mL is 9.2% in the data set on M. luteus (Micrococcus luteus, 15.60 µg/mL) and above 40% in the data set on P. batsensis. Moreover, the inhibition at 31.25 µg/mL is 20 ± 0.5% in the data set with M. luteus (Micrococcus luteus, 31.25 µg/mL) and above 40% in the data set with P. batsensis. Besides, the “Inhibition (%) P. tricornutum (growth)” value was determined as 45.7% in data set [1] (25 µg/mL), 58.0% in data set [1] (50 µg/mL) and 86.9% in data set [1] (100 µg/mL). Further, the “EC50 [Conf. Limits] anti-settlement” value in data set [2] is 1.755 (1.308–5.492) µg/mL. The EC50 in data set [2] was found to be 1.76 µg/mL (≈ 4.15 µM). In the data set on P. batsensis (0.98 µg/mL), this compound returned an inhibition at 0.98 µg/mL of 20.7 ± 1.1%. The compound further gave an inhibition at 1.95 µg/mL with P. batsensis of 26.6 ± 0.8%. Moreover, the inhibition at 3.91 µg/mL with P. batsensis was determined as 31 ± 0.7%. In addition, the inhibition at 7.81 µg/mL in the data set on P. batsensis is 35.9 ± 0.5%.
On to `CC1=CCC[C@@H](C)[C@]1(C)CC[C@@]1(C)c2c(O)cc3c(c2O[C@@H]1C)C(=O)C(C)=C(O)C3=O` [compound 2, neomarinone], for which the “Growth inhibition (%) M. luteus” value in the data set with M. luteus (15.60 µg/mL) and in the data set on M. luteus (31.25 µg/mL) was “N.I” throughout. Further, the inhibition at 0.98 µg/mL in the data set on M. luteus (Micrococcus luteus, 0.98 µg/mL) stood at 1.8 ± 0.4%. Besides, the inhibition at 1.95 µg/mL is 3.8 ± 1.7% in the data set on M. luteus (Micrococcus luteus, 1.95 µg/mL) and 0.3 ± 0.5% in the data set on P. batsensis. Besides, the inhibition at 3.91 µg/mL is 9 ± 0.9% in the data set on M. luteus (Micrococcus luteus, 3.91 µg/mL) and 4.2 ± 0.3% in the data set with P. batsensis. Further, the inhibition at 7.81 µg/mL came to 6.8 ± 1% with M. luteus (Micrococcus luteus, 7.81 µg/mL) and 0% in the data set on P. batsensis. In addition, the “Inhibition (%) P. tricornutum (growth)” value in data set [1] (12.5 µg/mL) amounted to 26.5%; in data set [1] (25 µg/mL), 38.5%; in data set [1] (50 µg/mL), 40.8%; in data set [1] (100 µg/mL), 77.7%. The “EC50 [Conf. Limits] anti-settlement” value in data set [2] was 0.119 (0.015–0.253) µg/mL. In addition, the EC50 in data set [2] is 0.12 µg/mL (≈ 0.283 µM). The “Growth inhibition (%) P. batsensis” value in the data set on P. batsensis (0.98 µg/mL) is given as “N.I”. Besides, 15.6 µg/mL produced 0.9 ± 0.4% inhibition in the data set on P. batsensis. In the data set on P. batsensis, at 31.25 µg/mL the inhibition was 11.1 ± 0.4%. In addition, the entries for the “Inhibition (%) D. magna (immobilization)” value with Daphnia magna (listed as Neomarinone (2)) and with Daphnia magna (listed as neomarinone (2)) were 33.0% and 33%, respectively.

Values taken from PMC11306024, “Novel metabolite madeirone and neomarinone extracted from Streptomyces aculeoletus as marine antibiofilm and antifouling agents” (Frontiers in Chemistry, 2024).
